{"source": "patent US20050180982A1", "about": "“Cadherin-11 expression, an assay and treatment for cellular invasiveness” (THE UNIVERSITY OF BRITISH COLUMBIA, priority 1998, published 2005)", "key": {"[1]": {"test_system": "extravillous cytotrophoblasts", "test": "Immunocytochemistry for cad-11 and morphology of extravillous cytotrophoblasts cultured with TGF-1", "type": "cell-based, human", "description": "(§1) First trimester placentae were obtained from elective terminations of pregnancies (8-13 weeks). Extravillous cytotrophoblasts were propagated from first trimester placental explants as described by Graham et al. Biology of Reproduction 46:561-572. The chorionic villi were washed thoroughly in Dulbecco's Modified Eagle's Medium (DMEM; Gibco BRL. Burlington. Ont.) containing 25 mM glucose, 25 mM Hepes and […] gentamicin. The villi were minced finely and plated in 25 cm^2 tissue culture flasks containing DMEM supplemented with antibiotics and 10% heat-inactivated fetal calf serum (FCS). The fragments of chorionic villi were allowed to adhere for […], after which the non-adherent material was removed. The villous explants were cultured for a further 10-14 days, with the culture medium being replaced every 3 days. The propagated extravillous cytotrophoblasts were separated from the villous explants by a trypsin digestion (0.125% trypsin in Ca^2−, Mg^2−-free PBS) and plated in 60 mm culture dishes containing DMEM supplemented with antibiotics and 10% FCS. The purity of the extravillous cytotrophoblast cultures was determined by cytokeratin immunostaining. Only cultures which were 100% positive for cytokeratin immunostaining were used.\n(§2) Extravillous cytotrophoblasts grown to 70% confluence in DMEM containing 10% FCS, were washed with PBS and cultured in serum-free DMEM for a further 24 hours. This culture medium was removed and after the cells had been washed twice with PBS, replaced with serum-free DMEM containing porcine TGF-1 (1 pg-10 ng/ml); Sigma Chemical Co., St. Louis. MO) or vehicle ([…]). The cells were fixed for morphological assessment and immunocytochemistry or harvested for Northern or Western blot analysis after 24 hours of culture in the presence or absence of TGF-1.\nThe cells were washed twice in PBS and fixed in 0.1% glutaraldehyde/2% formaldehyde at 4° C. for 20 minutes Immunocytochemistry was performed using a mouse monoclonal antibody directed against human cytokeratin filaments 8 and 18 (Becton Dickson. San lose. CA) or a further monoclonal antibody directed against human cad-11 (C11-113E; ICOS Corporation. Bothell, Wash.; ATCC accession no. HB-12515) as described in (MacCalman et al. 1996 [supra] and Getsios et al. 1998 [supra]). Sequential incubations were performed according to the methods of Cartun and Pedersen (1989) J. of Histotechnology 12:273-280 and included 10% normal horse serum for 30 minutes, primary antiserum at 37° C. for 1 hours, secondary biotinylated antibody at 37° C. for 45 minutes, streptavidin-biotinylated horseradish peroxidase complex reagent at 37° C. for 30 minutes, and three five minutes washes in PBS. […]"}, "[2]": {"test_system": "cad-11 protein in extravillous cytotrophoblasts", "test": "Western blot of cad-11 protein in extravillous cytotrophoblasts cultured with TGF-1", "type": "cell-based, human", "description": "as §1, §2\nFor Western blot analysis, the trophoblasts were incubated in 100 l of cell lysis buffer (Tris-HCl, pH 7.5 containing 0.5% Nonidet P40, 0.5 mM CaCl2 and 1.0 mM PMSF) at 4° C. for 30 minutes on a rocking platform. The cell lysates were centrifuges at 10.000×g for 20 minutes and the supernatant used in the Wester blot analyses. Aliquots were then taken from the samples and subjected to SDS-polyacrylamide gel electrophoresis under reducing conditions, as described by Laemmli (1970) Nature 227:680-685. The stacking gels contained 5% acrylamide and the separating eels were composed of 7.5% acrylamide. […]\nThe results are presented as the mean relative absorbance (±SE) for three independent experiments. Statistical differences between treatments were assessed by the analysis of variance (ANOVA). […] Significant differences between the means were determined using the least significant test. […]"}, "[3]": {"test_system": "cad-11 mRNA in PC3 prostate cancer cell line", "test": "Semiquantitative PCR of cad-11 mRNA in PC3 cells cultured with TGF-1", "type": "cell-based", "details": "TGF-1 10 pg-1 ng/ml for 24 hours", "source_text": "(§3) However, low levels of the mRNA transcripts encoding E-cadherin and cad-11 were also detected in these cell lines.\n(§4) The increase in cad-11 was concomitant with a decrease in cad-6 and N-cadherin mRNA levels."}, "[4]": {"test_system": "cad-11 mRNA in extravillous cytotrophoblasts", "test": "Northern blot of cad-11 mRNA in extravillous cytotrophoblasts cultured with TGF-1", "type": "cell-based, human", "description": "as §1\nExtravillous cytotrophoblasts grown to 70% confluence in DMEM containing 10% FCS, were washed with PBS and cultured in serum-free DMEM for a further 24 hours. […]\nThe Northern blots were probed with a human cad-11 cDNA probe according to the methods of MacCalman et al. (1992) [supra]. […] The absorbance values obtained for the cad-11 mRNA transcript were normalized relative to the 18 rRNA absorbance value.\nThe results are presented as the mean relative absorbance (±SE) for three independent experiments. Statistical differences between treatments were assessed by the analysis of variance (ANOVA). […] Significant differences between the means were determined using the least significant test."}, "[5]": {"test_system": "N-cadherin mRNA in PC3 prostate cancer cell line", "test": "PCR of N-cadherin mRNA in PC3 cells cultured with TGF-1", "type": "cell-based", "details": "TGF-1 10 pg-1 ng/ml for 24 hours", "source_text": "as §3, §4"}, "[6]": {"test_system": "cad-6 mRNA in PC3 prostate cancer cell line", "test": "PCR of cad-6 mRNA in PC3 cells cultured with TGF-1", "type": "cell-based", "details": "TGF-1 10 pg-1 ng/ml for 24 hours", "source_text": "as §3, §4"}, "[7]": {"details": "1 or 10 ng/ml of TGF-1, 24 hours, only these concentrations"}, "[8]": {"details": "TGF-1 1 pg-10 ng/ml, 24 hours, dose-dependent manner"}}}
{"substance": "TGF-1: porcine TGF-1 (transforming growth factor), Sigma Chemical Co.", "values": [{"measurement": "cellular structures observed", "setting": "[1]; 0.1 ng/ml of TGF-1 for 12 hours", "result": "Large cellular aggregates"}, {"measurement": "large cellular aggregates and multinucleated cells", "setting": "[1]; 10 ng/ml TGF-1, 24 hours", "result": "predominant"}, {"measurement": "number of cells expressing cad-11", "setting": "[1]; 1 or 10 ng/ml of TGF-1, 24 hours, immunostaining", "result": "marked increase"}, {"measurement": "cad-11 immunostaining of cell aggregates", "setting": "[1]; high concentrations of TGF-1", "result": "Intense immunostaining"}, {"measurement": "cad-11 protein expression levels at 1 or 10 ng/ml", "setting": "[2]; [7]", "result": "significant increase"}, {"measurement": "TGF-1 concentration giving maximum cad-11 expression levels", "setting": "[2]; 24 hours", "result": 10, "unit": "ng/mL"}, {"measurement": "cad-11 protein expression levels, dose dependence", "setting": "[2]; [8]", "result": "increase"}, {"measurement": "cad-11 levels by Western blot, dose dependence", "setting": "[2]; porcine TGF-1 10 pg-10 ng/ml", "result": "increased"}, {"measurement": "Cad-11 mRNA levels", "setting": "[3]", "result": "readily detectable"}, {"measurement": "cad-11 mRNA levels at 1 or 10 ng/ml", "setting": "[4]; [7]", "result": "significant increase"}, {"measurement": "TGF-1 concentration giving maximum cad-11 mRNA levels", "setting": "[4]; 24 hours", "result": 10, "unit": "ng/mL"}, {"measurement": "cad-11 mRNA levels, dose dependence", "setting": "[4]; [8]", "result": "increased"}, {"measurement": "N-cadherin mRNA levels", "setting": "[5]", "result": "decrease"}, {"measurement": "cad-6 mRNA levels", "setting": "[6]", "result": "decrease"}]}
